Test results from patent US5762910A, “Liposoluble compounds useful as magnetic resonance imaging agents” (ImaRx Pharmaceutical Corp., priority 1996, dated 1998).

What was measured:
[1] = In vitro relaxivity of liposomal contrast agents at 0.5 Tesla (Table I); type: physicochemical; conditions: 0.5 Tesla (21.3 MHz); liposomes EPC/cholesterol 8:2, 33 mole percent compound
Description: Liposomal contrast agents of the invention, prepared in accordance with Example 8, were serially diluted from a stock solution of known concentration. Diluted concentrations for testing were held constant at 0.5 mM, 0.25 mM, 0.125 mM, 0.100 mM, 0.05 mM, and 0.025 mM, respectively. Samples were scanned on a Toshiba MRT 50A 0.5 Tesla (21.3 MHz) clincal magnet equipped with a QD head coil (Toshiba MRI scanner, Nasu, Japan). Signal intensities for resulting scans were then statistically analyzed using a computer curve fitting program (Fit All, MTR Software, version 1.1). Resulting relaxivities were regressed against the concentration to determine R1 (1/T1 mmol sec^-1) and R2 ([…]). The results were compared with similar scans for other compounds not within the scope of the present invention. Specifically, as a comparison for the contrast agents of the invention, 0.5 Tesla scans were made of Gd-DTPA (no liposome), Mn-EDTA-MEA (no liposome), Mn-EDTA-MEA (incorporated into a liposome of 0.1 micron), and phosphate buffered saline (PBS).
In all liposome examples in Table I, the lipid concentration is 200 mM, and all liposomes are composed of 80 mole percent egg phosphatidyl choline (EPC) and 20 mole percent cholesterol. […]

[2] = In vitro relaxivity of Mn-EDTA-DDP and Mn-EDTA-DDP albumin suspensions at 0.5 Tesla (Table III); type: physicochemical; conditions: 0.5 Tesla (21.3MHz), in mM^-1 s^-1
Description: Mn-EDTA-DDP and Mn-EDTA-DDP albumin suspensions (contrast agents within the scope of the invention) were prepared in accordance with Example 11, except that water instead of saline was used. The samples scanned by NMR using a 0.5 Tesla (21.3MHz) Toshiba MRI scanner (Nasu, Japan) to determine relaxivity. The results were compared with similar scans for other compounds not within the scope of the invention. Specifically, scans were made of contrast agent of the invention, Mn-EDTA-DDP, Mn-EDTA-DDP albumin suspensions (both heated to 55° C., and unheated), and compared with scans of PBS, Gd-DTPA, MnCl2, and MnCl2 albumin suspensions. MnCl2, and the MnCl2 liposomes were prepared in accordance with Example 15.

[3] = background; compared with gadolinium alone; cited from earlier work
[4] = tested on: Outbred ICR mice; assay: In vivo toxicity, LD50 in mice after intravenous tail vein injection (Table V); design: species or system mouse; conditions: i.v. tail vein
Description: Outbred ICR mice (Harlan Sprague Dawley, Indianapolis, Ind.) were injected intraveneously via a tail vein injection with various doses of Mn-EDTA-DDP and Mn-EDTA-DDP liposomes, prepared in accordance with Example 8, and the LD50 measured. As a comparison, the mice were also injected with MnCl2 and MnCl2 liposomes.
In Table V, MnCl2 liposomes denotes manganese chloride salt entrapped in 100 nm diameter liposomes comprised of 8:2 EPC/cholesterol. Also, Mn-EDTA-DDP in liposomes refers to 100 nm liposomes comprised of 1:3Mn-EDTA-DDP to lipid (where the lipid is 8:2 EPC/cholesterol).

[5] = tested on: rats bearing hepatic tumors (C5 clonal derivative epithelioid neoplasms); assay: In vivo efficacy, MR imaging at 1.5 Tesla of rats bearing hepatic tumors (Tables IV A-D); design: species or system rat; conditions: i.v.; for Tumor Contrast To Noise: 30 minute delay
Description: Mn-EDTA-ODP and Mn-EDTA-DDP liposomes of both 30 nm and 100 nm (contrast agents within the scope of the invention) were prepared in accordance with Example 8, injected intraveneously via a tail vein injection into rats bearing hepatic tumors (C5 clonal derivative epithelioid neoplasms), and the rats imaged using a 1.5 Tesla GE Signa Clinical Magnet equipped with a linear knee coil. Animals were anesthesized with a 10:1 mixture v/v of ketamine (100 mg/ml) and acepoumozine (10 mg/ml) prior to imaging. Imaging parameters were: TR=250; TE=12; Matrix=256×192; NEX=8; FOV 16 cm; Slice Thickness=3 mm; Slice Gap=1 mm. Images were taken in the coronal plane, mapped off an axial scout image. For comparison, rats were also injected with MnCl2, and MnCl2 liposomes, prepared in accordance with Example 15.
In Table IV A, imaging was preformed with one rat at each dose. S/N denotes signal to noise ratio.
In Table IV B, the "*" denotes a 30 minutes delay in imaging. Also, NA denotes that imaging was not done at the indicated dosage. The liposomes employed were composed of 80 mole percent egg phosphatidylcholine (EPC) and 20 mole percent cholesterol. With the Mn-EDTA-DDP liposomes, there was a 1:3 molar ratio of Mn-EDTA-DDP to lipid in the liposomes (lipid was 8:2 EPC/cholesterol). The data was obtained from one rat imaged at each dose.
In Table IV C, NT denotes that no tumors were detected, and NA denotes that imaging not done at the indicated dosage.
In Table IV D, NT denotes that no tumors were detected, and NA denotes that imaging not done at the indicated dosage.

O=C([O-])CN(CCN(CC(=O)[O-])CC(=O)[O-])CCN(CC(=O)[O-])CC(=O)[O-].[Gd+3] [Gd-DTPA]
R1 (1/T1), relaxivity [1]: 4.68 ± 0.279 per millimole of paramagnetic | R2 (1/T2), relaxivity [1]: 5.17 ± 0.148 per millimole of paramagnetic | R1, relaxivity ([2]; 1.0 mM): 4.58 ± 0.143 | R2, relaxivity ([2]; 1.0 mM): 5.41 ± 0.65 | toxicity (in words) [3]: much less toxicity

[Cl][Mn][Cl] [MnCl2, manganese chloride]
R1, relaxivity ([2]; with and without albumin): 8.73 ± 0.928 | R2, relaxivity ([2]; with and without albumin): 39.45 ± 0.515 | Interpolated LD50s [4]: 250 µmol/kg | Tumor Contrast To Noise ([5]; 0.5 μM/kg): 12 | Percent Liver Enhancement ([5]; 0.5 μM/kg, delayed post (30 minutes delay)): 0% | Contrast to Noise ([5]; 0.5 μM/kg, post): 19 | Percent Liver Enhancement ([5]; 0.5 μM/kg, post): 0% | Contrast to Noise ([5]; 0.5 μM/kg, pre): 28 | Tumor Contrast To Noise ([5]; 1.0 μM/kg): 16 | Percent Liver Enhancement ([5]; 1.0 μM/kg, delayed post (30 minutes delay)): 0% | Contrast to Noise ([5]; 1.0 μM/kg, post): 23 | Percent Liver Enhancement ([5]; 1.0 μM/kg, post): 0% | Contrast to Noise ([5]; 1.0 μM/kg, pre): 37.5 | Tumor Contrast To Noise ([5]; 2.5 μM/kg): 35.9 | Percent Liver Enhancement ([5]; 2.5 μM/kg, delayed post (30 minutes delay)): 29.4% | Contrast to Noise ([5]; 2.5 μM/kg, post): 17.9 | Percent Liver Enhancement ([5]; 2.5 μM/kg, post): 25% | Contrast to Noise ([5]; 2.5 μM/kg, pre): 13.1 | Tumor Contrast To Noise ([5]; 5.0 μM/kg): 31.3 | Percent Liver Enhancement ([5]; 5.0 μM/kg, delayed post (30 minutes delay)): 21% | Contrast to Noise ([5]; 5.0 μM/kg, post): 28.3 | Percent Liver Enhancement ([5]; 5.0 μM/kg, post): 43% | Contrast to Noise ([5]; 5.0 μM/kg, pre): 21.3 | Tumor Contrast To Noise ([5]; 10.0 μM/kg): 29.6 | Percent Liver Enhancement ([5]; 10 μM/kg, delayed post (30 minutes delay)): 61% | Percent Liver Enhancement ([5]; 10 μM/kg, post): 81% | Contrast to Noise ([5]; 10.0 μM/kg, post): 29.2 | Contrast to Noise ([5]; 10.0 μM/kg, pre): 9.3

Manganese N,N'-Bis-(Carboxy-Decylamidomethyl-N-2,3-Dihydroxypropyl)-Ethylenediamine- N,N'-Diacetate [Mn-EDTA-DDP]
R1, relaxivity ([2]; with and without albumin): 9.83 ± 0.332 | R2, relaxivity ([2]; with and without albumin): 15.20 ± 0.393 | Interpolated LD50s [4]: 240 µmol/kg
